Test system: MCAS cells
Test: RALDH3 expression in treated MCAS cells by RT-QPCR
Assay type: cell-based, murine
Details: for RALDH3 expression (relative to 18S): MCAS cells treated in vitro with cytokine, vs no Tx
Experimental: FIGS. 16A-16C show 1L13 and RALDH expression. FIG. 16A: MCAS cells were treated in vitro with indicated agents and RALDH3 expression (relative to 18S) measured by RT-QPCR. P<0.05 between no Tx and IL4 or IL13. N=3, repeated >5 times. FIG. 16B: IL13 and IL13Rα1 staining in murine UPS. FIG. 16C: Single cell suspension from MCAS tumors were fractionated into CD45+(Leukocytes) and CD45-fraction using miltenyi magnetic columns. RT-QPCR based measurement (relative to 18S) of IL13 and IL13Rα1 transcripts were performed on fractionated cells. P<0.01 for IL13. N=3, experiment repeated twice.
FIG. 20A: MCAS cells were treated with indicated compounds and RALDH3 expression (relative to 18S) measured by RT-QPCR. P<0.01 for DMSO vs. IL13. P<0.05 for IL13 vs. IL13+BMS493. FIG. 20B: Schematic of RALDH3 regulation by RA.
Aldefluor positive and negative cells were purified from murine fibrosarcomas and were transplanted into syngeneic B6 mice. Tumors derived from both types of cells generated both aldefluor positive and negative cells. This indicated the existence of an environmental signal in the TME that induces RA production in tumor cells. Th2 cytokines such as IL4 and IL13 can promote the differentiation of monocytes into either immunostimulatory DCs or immunosuppressive TAMS. Therefore, it was reasoned that tumors might induce RA production in the presence of IL4 or IL13 to block DC and promote TAM differentiation. To test this, MCAS cell lines were treated with cytokines promoting macrophage and DC differentiation and measured the expression of RALDH enzymes. […] IL13 and its receptor IL13Rα1 were also detected in murine sarcomas by IHC (FIG. 16B).

Molecule: IL13: Th2 cytokine
- potency of RALDH3 induction, IL13 compared with IL4 (MCAS cells in vitro): more potent
- RALDH3 expression (relative to 18S): induced the expression of RALDH3

B1: IL4: Th2 cytokine (protein, UniProt P05112 25-153, looked up)
Interleukin-4: HKCDITLQEIIKTLNSLTEQKTLCTELTVTDIFAASKNTTEKETFCRAATVLRQFYSHHEKDTRCLGATAQQFHRHKQLIRFLKRLDRNLWGLAGLNSCPVKEANQSTLENFLERLKTIMREKYSKCSS
- RALDH3 expression (relative to 18S): induced the expression of RALDH3

Source: patent US12329760B2, “Methods and compositions for targeting retinoic acid for solid tumor immunotherapy” (THE TRUSTEES OF THE UNIVERSITY OF PENNSYLVANIA, priority 2019, dated 2025)
